# What was measured:
# [1] = Bleeding events (ISTH definition) in NVAF patients receiving apixaban; association by odds ratio; type: in vivo, human
# Procedure: The severity of bleeding was evaluated based on the definition provided by the International Society on Thrombosis and Hemostasis. In brief, events leading to a reduction in hemoglobin levels by at least 2 g/dL, fatal bleeding, or events occurring in critical body locations were considered major bleeding events. Events that required hospitalization, medical or surgical intervention, or a change in antithrombotic treatment were considered clinically relevant non-major. Any acute bleeding event not meeting the criteria for major or clinically relevant non-major bleeding was classified as a minor bleeding episode.
# In all enrolled patients, allele-specific real-time PCR was used to identify polymorphic variants of ABCB1 (rs1045642 3435C>T, rs2032582 2677G>T/A, rs1128503 1236C>T), CYP3A4*22 (rs35599367), and CYP3A5*3 (rs776746, 6986A>G). Commercial kits (OOO Syntol, Moscow, Russia) were employed on a CFX96 Touch™ Real-Time PCR Detection System (Bio-Rad, Hercules, CA, USA).
# The study data were subjected to statistical processing using both parametric and nonparametric methods. Statistical analyses were performed with the standard software package StatSoft Statistica 10.0 (Dell, Round Rock, TX, USA). Quantitative variables were assessed for normality using the Kolmogorov–Smirnov test (for sample sizes > 50), as well as by evaluating skewness and kurtosis. For quantitative variables with a normal distribution, the data were organized into variational series, and arithmetic means (M) with standard deviations (SD) were calculated. Comparisons of means in normally distributed quantitative datasets were performed using Student’s t-test, with obtained values evaluated against critical thresholds. For categorical variables, differences in frequency distributions were assessed using the χ^2 test, and Fisher’s exact test was applied when the number of observations was small. To quantify the effect of genetic markers on complication occurrence, odds ratios (ORs) with 95% confidence intervals (CIs) were calculated. Statistical significance for all analyses was defined at p < 0.05. For genetic analyses, multiple-testing correction was performed using the Benjamini–Hochberg false discovery rate (FDR) procedure.
# [2] = cited from earlier work
SMILES,"Bleeding event in the context of surgery ([1]; both, human, in vivo)","Epistaxis ([1]; both, human, in vivo)","Gastrointestinal bleeding ([1]; both, human, in vivo)","Hematomas and ecchymoses ([1]; both, human, in vivo)","Peptic ulcer exacerbation ([1]; both, human, in vivo)","Uterine bleeding ([1]; both, human, in vivo)","OR of bleeding events by sex ([1]; both, human, in vivo, 1.95 years)",Interindividual variability in exposure [2],Intraindividual variability in exposure [2],Association with incidence of bleeding events ([1]; simvastatin (n = 8) as co-medication with apixaban)
COc1ccc(-n2nc(C(N)=O)c3c2C(=O)N(c2ccc(N4CCCCC4=O)cc2)CC3)cc1 [apixaban],1 case,31 cases,3 cases,3 cases,1 case,1 case,1.119,~30%,approximately 20%,–
CCC(C)(C)C(=O)O[C@H]1C[C@@H](C)C=C2C=C[C@H](C)[C@H](CC[C@@H]3C[C@@H](O)CC(=O)O3)[C@H]21 [simvastatin],–,–,–,–,–,–,–,–,–,did not show an increase in incidence of bleeding events

# From paper PMC12562637 (Genes, 2025)
